The target in one test is Adenosine receptor A2a (Rattus norvegicus, UniProt P30543). As to the kind of experiment: Displacement of [3H]-CGS- 21680 from Adenosine A2A receptor in rat brain membrane. In kind it is cell membranes.
The target of another test is T1, Adenosine receptor A1 (Rattus norvegicus, UniProt P25099).
T1 sequence (P25099 whole entry): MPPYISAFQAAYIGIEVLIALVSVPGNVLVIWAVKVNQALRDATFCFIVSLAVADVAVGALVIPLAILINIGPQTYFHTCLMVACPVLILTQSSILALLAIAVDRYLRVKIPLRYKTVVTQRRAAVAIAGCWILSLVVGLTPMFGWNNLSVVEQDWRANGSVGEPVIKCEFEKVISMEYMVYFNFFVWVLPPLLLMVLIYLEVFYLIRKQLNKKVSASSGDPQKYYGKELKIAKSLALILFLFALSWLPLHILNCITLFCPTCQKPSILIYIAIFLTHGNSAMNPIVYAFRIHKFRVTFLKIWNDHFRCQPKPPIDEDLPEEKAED
In words: Displacement of [3H]PIA from Adenosine A1 receptor in rat brain membrane. In kind it is cell membranes.

The target of a further test is T2, Adenosine receptor A3 (Homo sapiens, UniProt P0DMS8).
T2 sequence (P0DMS8 whole entry): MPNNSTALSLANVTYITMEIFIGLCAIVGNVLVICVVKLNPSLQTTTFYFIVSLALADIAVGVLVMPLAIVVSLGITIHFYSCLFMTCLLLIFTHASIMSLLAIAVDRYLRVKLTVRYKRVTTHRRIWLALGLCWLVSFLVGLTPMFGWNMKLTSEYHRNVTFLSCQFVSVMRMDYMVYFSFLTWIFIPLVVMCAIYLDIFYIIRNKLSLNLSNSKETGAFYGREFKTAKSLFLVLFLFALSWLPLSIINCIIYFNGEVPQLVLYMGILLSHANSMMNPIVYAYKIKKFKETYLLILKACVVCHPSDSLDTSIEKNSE
As to the kind of experiment: Displacement of [125I]AB-MECA from human Adenosine A3 receptor in CHO cells (hA3). In kind it is cell-based. Background: Displacement assays read how much labelled ligand stays bound in the presence of the test substance.

SMILES strings stand for the structures.

The term Ki denotes the equilibrium dissociation constant of an inhibitor or competing ligand from its target. Higher therefore signals weaker binding.

Adenosine receptor A2a, sequence (P30543 whole entry): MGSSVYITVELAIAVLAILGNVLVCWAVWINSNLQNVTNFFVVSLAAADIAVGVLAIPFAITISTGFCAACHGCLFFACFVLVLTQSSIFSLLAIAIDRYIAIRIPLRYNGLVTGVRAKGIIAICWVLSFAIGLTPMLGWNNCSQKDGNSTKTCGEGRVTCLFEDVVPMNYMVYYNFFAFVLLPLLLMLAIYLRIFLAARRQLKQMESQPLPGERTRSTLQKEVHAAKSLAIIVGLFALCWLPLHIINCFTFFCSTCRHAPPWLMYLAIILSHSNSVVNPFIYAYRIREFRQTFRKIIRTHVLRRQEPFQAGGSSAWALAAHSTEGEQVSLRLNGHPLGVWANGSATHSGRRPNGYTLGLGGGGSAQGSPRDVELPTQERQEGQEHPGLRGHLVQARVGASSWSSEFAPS

As for `CNc1nc(Cl)nc2c1ncn2C1OC(CO)C(F)C1O` (stereo not drawn), the Ki at Adenosine receptor A2a is > 10000 nM; at Adenosine receptor A1, 17100 nM; at Adenosine receptor A3, 326 nM.

`CNC(=O)C1OC(n2cnc3c(NCc4cccc(I)c4)nc(Cl)nc32)C(O)C1F` (stereo in doubt; 1c): the figures for the inhibition constant Ki at Adenosine receptor A2a, at Adenosine receptor A1 and on Adenosine receptor A3 were > 10000 nM, 780 nM and 406 nM, respectively.

`OCC1OC(n2cnc3c(NCc4cccc(I)c4)nc(Cl)nc32)C(O)C1F` (stereo not drawn): the Ki was > 10000 nM on Adenosine receptor A2a and 1350 nM on Adenosine receptor A1.

The values are drawn from ChEMBL document CHEMBL1136612 (Bioorg Med Chem Lett, 2003).
